Measurements reported in the NIST ThermoML archive (doi:10.1021/je800517r).
“And” between values parts separate entries of the source, which are not always exact repeats. Equal values may be shown once.

Assay: activity coefficient (dimensionless); of the first substance listed, at infinite dilution; xn = mol fraction of the nth substance listed
Conditions: Liquid, comparative ebulliometry, circulation still, and differential distillation method, x1 = 0

CC(=O)N(C)C [N,N-dimethylethanamide] + O
Conditions	activity coefficient
343.15 K	1.27
343.51 K	1.29
349.03 K	1.46
351.15 K	1.37
353.5 K	1.72 and 1.79
363.87 K	2.06 and 2.24
370.86 K	2.12
372.28 K	2.05

CNC(C)=O [N-methylacetamide] + O
Conditions	activity coefficient
333.15 K	1.7
343.15 K	1.78
353.15 K	1.82

CNC=O [N-methylformamide] + O
Conditions	activity coefficient
333.15 K	1.37
343.15 K	1.42
353.15 K	1.44
372.65 K	1.65

CN(C)C=O [dimethylformamide] + O
Conditions	activity coefficient
343.73 K	1.23
349.05 K	1.27
353.45 K	1.3
357.91 K	1.3
358.5 K	1.36
363.82 K	1.35
368.38 K	1.59
371.62 K	1.54
372 K	1.66
